# “Also recorded” adds a separate entry of the source.
# Assays:
# [1] = system: Male Sprague-Dawley rats; experiment: Example 2: dexamethasone-treated rats infused with insulin, rhGH, rhIGF-I and combinations; feed intake, nitrogen digestion and retention, serum urea; format: in vivo, rat; details: for Feed intake / feed consumption (in words) / Nitrogen balance / nitrogen wasting induced by dexamethasone (in words) / Relative nitrogen retention (retained N/digested N x 100): 8 days infusion; for Nitrogen balance / nitrogen wasting induced by dexamethasone (in words): Dex 26 ug/day with or without peptides; for Relative nitrogen retention (retained N/digested N x 100): Dex 26 ug/day with peptides: insulin 39, rhGH 360, rhIGF-I 500 ug/day, mean, pooled SE
# Protocol: On day zero the rats were anaesthetized intraperitoneally with 0.4 ml per 100 g body weight of a mixture of Rompun (20 mg·ml^-1), Ketalar (50 mg·ml^-1) and Saline (0.9%) in 1:2:3 volume proportions. The hair on the back of the rats was shaved off and the exposed skin carefully washed with 0.05% chlorhexidine (Pharmacia, Stockholm, Sweden) and 0.4% jodopax (Molnlycke, Goteborg, Sweden), both being diluted in 70% alcohol.
# Two mutually parallel incisions, each of 15 mm in length, were then made along the dorsal midline. The incisions penetrated the epidermis, dermis and subcutaneous muscle but left the deep fascia intact. Two subcutaneous pockets were made on both sides of the incisions by separating the subcutaneous muscle from the deep fascia. One (Exp. I) or two (Exp. 2) mini-pumps were implanted in each pocket. The wounds were closed with sutures 4-0 Johnson & Johnson).
# Osmotic mini-pumps (Alzet 2001, Alza Corporation, Palo Alto, USA) releasing 1 μl·h^-1 for 8 days were used for continuous delivery of hormones and Dex to the animals. The pumps were filled to a volume of 0.22 ml with solutions of rhGH (14.4 mg·ml^-1, Genotropin®, Pharmacia), rhIGF-I (20 mg·ml^-1, Igef®, Pharmacia, Kabi Peptide Hormones, Stockholm, Sweden), insulin (1.57 mg/ml, Actrapid®, Novo, Copenhagen, Denmark), Dex (1.04 mg·ml^-1, Decadron, Merck Sharp & Dohme International, Rathway, USA) or Saline (0.9%). Two (Example 1) or four (Example 2) pumps combined as described above were implanted in each rat. Implantation of the pumps was performed under strictly aseptic conditions.
# Total feed intake was registered throughout the full 8 day experimental period. Urine and faeces were collected daily, pooled and kept at -20° C. until analysed. Excreta was collected by housing the animals in individual metabolism cages that were specially designed for the separation of urine and faeces. In order to inhibit urease-activity in the urine, 1 ml of 5% sulphuric acid was pipetted every morning in the collection vessels. The 24 hour collections of urine were pooled individually for each treatment period and immediately frozen after the collection. Similarly, the samples of faeces were also pooled individually for each treatment period and kept frozen (-20° C.) until analysis.
# Blood samples were taken on day zero and on the last day of the experiment. During anaesthesia, blood was withdrawn quickly from the orbital plexus by using a glass capillary. On each sampling occasion 0.75 ml blood was taken 5 from each animal. One third (0.25 ml) of the blood sample was collected in a microtainer tube containing EDTA (Beckton and Dickinson) for analysis of glucose. Serum was prepared from the remaining blood sample (0.5 ml) in accordance with standard methods and analysed for urea.
# Urea in serum was determined spectrophotometrically by using the Urea UV Uni-Kit II (Roche) with an autoanalyzer (Cobas Mira, Roche Co, Basel, Switzerland). Urea values were expressed in mmol/l. The total nitrogen content in urine was determined with the aid of the Antek Pyro-Chemilumicence Nitrogen System. The apparatus used comprised the Antek 7000N nitrogen analyser with Liquid Auto Sampler 736-2 and a pyrolysis tube with a ceramic liner (Antek Instruments Inc., Houston, Tex., U.S.A.). The frozen urinary samples were thawed and diluted 1:100 with 0.1 M HCl and then analysed. The urinary nitrogen values were then calculated as mg nitrogen excreted.
# Total nitrogen in faeces was determined by an established Kjeldahl method (Kjeltec System, Tecator AB, Halsingborg, Sweden). The frozen faecal samples were thawed and dried in an oven at 60° C. overnight. The weight of the dried sample was noted and the sample then ground. 0.20 g of the milled faecal sample was mixed in a Kjeldahl digestion tube with 10.0 ml of concentrated sulphuric acid. 2.0 ml of a 30% solution of H2 O2 (30% Perhydrol, Merck, Darmstadt, Germany) was added and mixed carefully.
# [2] = system: Male Sprague-Dawley rats; experiment: Example 1: dexamethasone-treated rats infused with saline, rhGH or rhIGF-I; body weight gain and nitrogen retention; format: in vivo, rat; details: for Retention of nitrogen (nitrogen balance): 8 days infusion with Dex, rhIGF-I 500 per day vs saline or rhGH
# Protocol: On day zero the rats were anaesthetized intraperitoneally with 0.4 ml per 100 g body weight of a mixture of Rompun (20 mg·ml^-1), Ketalar (50 mg·ml^-1) and Saline (0.9%) in 1:2:3 volume proportions. The hair on the back of the rats was shaved off and the exposed skin carefully washed with 0.05% chlorhexidine (Pharmacia, Stockholm, Sweden) and 0.4% jodopax (Molnlycke, Goteborg, Sweden), both being diluted in 70% alcohol. Two mutually parallel incisions, each of 15 mm in length, were then made along the dorsal midline. The incisions penetrated the epidermis, dermis and subcutaneous muscle but left the deep fascia intact. Two subcutaneous pockets were made on both sides of the incisions by separating the subcutaneous muscle from the deep fascia. One (Exp. I) or two (Exp. 2) mini-pumps were implanted in each pocket. The wounds were closed with sutures 4-0 Johnson & Johnson). Osmotic mini-pumps (Alzet 2001, Alza Corporation, Palo Alto, USA) releasing 1 μl·h^-1 for 8 days were used for continuous delivery of hormones and Dex to the animals. The pumps were filled to a volume of 0.22 ml with solutions of rhGH (14.4 mg·ml^-1, Genotropin®, Pharmacia), rhIGF-I (20 mg·ml^-1, Igef®, Pharmacia, Kabi Peptide Hormones, Stockholm, Sweden), insulin (1.57 mg/ml, Actrapid®, Novo, Copenhagen, Denmark), Dex (1.04 mg·ml^-1, Decadron, Merck Sharp & Dohme International, […], USA) or Saline (0.9%). Two (Example 1) or four (Example 2) pumps combined as described above were implanted in each rat. Implantation of the pumps was performed under strictly aseptic conditions. Total feed intake was registered throughout the full 8 day experimental period. Urine and faeces were collected daily, pooled and kept at -20° C. until analysed. Excreta was collected by housing the animals in individual metabolism cages that were specially designed for the separation of urine and faeces. In order to inhibit urease-activity in the urine, 1 ml of 5% sulphuric acid was pipetted every morning in the collection vessels. The 24 hour collections of urine were pooled individually for each treatment period and immediately frozen after the collection. Similarly, the samples of faeces were also pooled individually for each treatment period and kept frozen (-20° C.) until analysis. Urea in serum was determined spectrophotometrically by using the Urea UV Uni-Kit II (Roche) with an autoanalyzer (Cobas Mira, Roche Co, Basel, Switzerland). Urea values were expressed in mmol/l. The total nitrogen content in urine was determined with the aid of the Antek Pyro-Chemilumicence Nitrogen System. The apparatus used comprised the […] nitrogen analyser with Liquid Auto Sampler 736-2 and a pyrolysis tube with a ceramic […] Instruments Inc., Houston, Tex., U.S.A.). The frozen urinary samples were thawed and diluted 1:100 with 0.1 M HCl and then analysed. The urinary nitrogen values were then calculated as mg nitrogen excreted. Total nitrogen in faeces was determined by an established Kjeldahl method (Kjeltec System, Tecator AB, Halsingborg, Sweden). The frozen faecal samples were thawed and dried in an oven at 60° C. overnight. The weight of the dried sample was noted and the sample then ground. 0.20 g of the milled faecal sample was mixed in a Kjeldahl digestion tube with 10.0 ml of concentrated sulphuric acid. 2.0 ml of a 30% solution of H2 O2 (30% Perhydrol, Merck, Darmstadt, Germany) was added and mixed carefully. One catalyst tablet (Kjeltabs C A, Thompson & Capper, Runcom, Cheshire, UK) was added to each sample. The mixture was digested at 380° C. for at least one hour or until complete bleaching of the sample was achieved. […] The faecal nitrogen values were calculated as mg nitrogen excreted. Data were subjected to a one-way analysis of variance in which the effect of treatment was considered the prime source of variation. Calculations were executed by the GLM procedure of the SAS program (SAS 1985). […]
# [3] = 8 days s.c. mini-pump infusion, at every Dex dose (26, 13 or 6.5 per day), rhGH 360, rhIGF-I 500 per day, vs saline
Compound,Feed intake / feed consumption (in words) [1],Nitrogen balance / nitrogen wasting induced by dexamethasone (in words) [1],Relative nitrogen retention (retained N/digested N x 100) [1],Retention of nitrogen (nitrogen balance) [2],"Body weight gain [2, 3]",Nitrogen balance / nitrogen wasting induced by dexamethasone (in words) ([1]; listed as GH),"Body weight gain ([2]; 8 days infusion, at the medium and high Dex infusion dose)","Reduction of feed intake ([1]; Dex 26 per day, 8 days)"
"rhIGF-I: recombinant human insulin-like growth factor I (Igef, Pharmacia)",slightly stimulated feed consumption,decreased significantly the wasting of nitrogen induced by dexamethasone,23.0%,significantly (p<0.05) higher; also recorded: followed the same pattern,significantly (p<0.05) higher weight gain in comparison with saline; also recorded: significantly (p<0.05) increased,,,
"rhGH: recombinant human growth hormone (Genotropin, Pharmacia)",,not found to counteract the nitrogen wasting induced by dexamethasone,3.8%,followed the same pattern,the opposite effect,without effect,negative values for body weight gain,
"C[C@@H]1C[C@H]2[C@@H]3CCC4=CC(=O)C=C[C@]4(C)[C@@]3(F)[C@@H](O)C[C@]2(C)[C@@]1(O)C(=O)CO [Dex, dexamethasone, reference compound]",generally decreased feed intake,decrease the nitrogen balance dramatically,7.2%,,general decrease with increased Dex dose,,,approximately 20%
"insulin: insulin (Actrapid, Novo)",,without effect,11.9%,,,,,
